Consider 45 molecules from patent US20040006061A1, “Alkoxybenzylamine” (priority 2001, published 2004).

Assay [1] has as its system Escherichia coli NCTC 8196. The assay can be described thus: Determination of the Minimum Inhibitory Concentration (MIC value) in microtitre plates, Escherichia coli. It counts as cell-based. The conditions noted are these: Escherichia coli, NCTC8196, 48 h, read-out: MIC [μg/ml] EC. The method, then: (§1) Determination of the Minimum Inhibitory Concentration (MIC Value) in Microtitre Plates
Casein-soybean flour-peptone broth for preparation of pre-cultures of test bacteria and yeast. […]
Escherichia coli NCTC 8196
(§2) The test substances are pre-dissolved in dimethyl sulfoxide (DMSO) and tested in a dilution series of 1:2.
(§3) The bacteria are cultured overnight in CASO broth and washed off using 10 ml of 0.85% sodium chloride solution (+0.1% Triton X-100).
(§4) All the test organisms are adjusted to an organism count of 1-5×10^6 CFU/ml using 0.85% sodium chloride solution.
(§5) The test substances are pre-pipetted into microtitre plates in amounts of 8 μl per well.
(§6) Pre-diluted test organism suspensions are diluted 1:100 in CASO broth.
(§7) The test batches are incubated for 48 hours at 37° C.
(§8) After incubation, the growth is determined on the basis of the turbidity of the test batches (optical density) at 620 nm in a microplate reader.
(§9) The minimum inhibitory concentration (MIC value) is the concentration of substance at which there is found (compared to the growth of the control) an appreciable inhibition of growth (≦20% growth) of the test organisms.
(§10) One microtitre plate is used for each test organism and substance concentration.
(§11) All the substances are tested in duplicate.

Assay [2] has as its system Staphylococcus hominis DSM 20328. The assay can be described thus: Determination of the Minimum Inhibitory Concentration (MIC value) in microtitre plates, Staphylococcus hominis. The conditions noted are these: Staphylococcus hominis, DSM20328, 48 h, read-out: MIC [μg/ml] SH. It counts as cell-based. The method, then:
as §1
Casein-soybean flour-peptone broth for preparation of pre-cultures of test bacteria and yeast.
Staphylococcus hominis DSM 20328 […]
as §2, §3, §4, §5, §6, §7, §8, §9, §10, §11

The mark [3] stands for this setting: Escherichia coli NCTC 8196, CASO broth, 48 hours at 37° C., MIC = ≦20% growth (optical density at 620 nm).
Setting [4] is: Staphylococcus hominis DSM 20328, CASO broth, 48 hours at 37° C., MIC = ≦20% growth (optical density at 620 nm).

Read-outs that look alike come from different tables or passages of the source.

With `CCCCCCOc1ccc(CN(C(C)C)C(C)C)cc1OC` [Compound of formula (27)], the MIC in assay [1] (setting [3]) and in assay [2] (setting [4]) was over 120 µg/mL each time.

On to `CCCCCCOc1ccc(CN2CCN(C)CC2)cc1OC` [Compound of formula (28)], for which the MIC in assay [1] and in assay [2] was over 120 µg/mL throughout.

`CCCCCCOc1ccc(CN(CC)CC)cc1OC` [Compound of formula (29)]: the MIC in assay [1] (setting [3]) and in assay [2] (setting [4]) was over 120 µg/mL each time.

As for `CCCCCCOc1ccc(CN2CCN(C(C)=O)CC2)cc1OC` [Compound of formula (30)], the MIC in assay [1] (setting [3]) and in assay [2] (setting [4]) was over 120 µg/mL in each case.

With `CCCCCCOc1ccc(CN(C)Cc2ccccc2)cc1OC` [Compound of formula (31)], the MIC in assay [1] (setting [3]) and in assay [2] (setting [4]) was over 120 µg/mL each time.

As for `CCCCCCOc1ccc(CN(C)CCCCCC)cc1OC` [Compound of formula (32)], the results for the MIC in assay [1] (setting [3]) and in assay [2] (setting [4]) were 7.5 µg/mL and 60 µg/mL, respectively.

Consider `CCCCCCOc1ccc(CN2CCN(CC)CC2)cc1OC` [Compound of formula (33)], for which the MIC in assay [1] and in assay [2] was over 120 µg/mL each time.

With `CCCCCCCCCCCCN(C)Cc1ccc(OCCCCCC)c(OC)c1` [Compound of formula (35)], the MIC in assay [1] (setting [3]) was over 120 µg/mL; in assay [2] (setting [4]) it was 15 µg/mL.

Consider `CCCCCCOc1ccc(CN(C)C)cc1OC` [Compound of formula (36)], for which the MIC in assay [1] (setting [3]) and in assay [2] (setting [4]) was over 120 µg/mL throughout.

`CCCCCCOc1ccc(CN2CCNCC2)cc1OC` [Compound of formula (37)]: the MIC in assay [1] and in assay [2] was over 120 µg/mL each time.

Turning to `CCCCCCOc1ccc(CN2CCN(c3cccc(OC)c3)CC2)cc1OC` [Compound of formula (38)], the MIC in assay [1] (setting [3]) and in assay [2] (setting [4]) was over 120 µg/mL throughout.

For the molecule `CCCCCCCCOc1ccc(CN(C)CCc2ccccn2)cc1OC` [Compound of formula (39)], the values for the MIC in assay [1] (setting [3]) and in assay [2] (setting [4]) were over 120 µg/mL and 120 µg/mL, respectively.

For `CCCCCCCCOc1ccc(CN2CCOCC2)cc1OC` [Compound of formula (40)], the MIC in assay [1] (setting [3]) and in assay [2] (setting [4]) was over 120 µg/mL in each case.

Turning to `CCCCCCCCOc1ccc(CN(C)CCCC)cc1OC` [Compound of formula (41)], the MIC in assay [1] (setting [3]) and in assay [2] (setting [4]) was 15 µg/mL throughout.

Turning to `CCCCCCCCOc1ccc(CN2CCCCCC2)cc1OC` [Compound of formula (42)], the MIC in assay [1] (setting [3]) and in assay [2] (setting [4]) was 15 µg/mL in each case.

On to `CCCCCCCCOc1ccc(CN(C(C)C)C(C)C)cc1OC` [Compound of formula (43)], for which the MIC in assay [1] (setting [3]) and in assay [2] (setting [4]) was over 120 µg/mL throughout.

Take `CCCCCCCCOc1ccc(CN2CCN(C)CC2)cc1OC` [Compound of formula (44)]: the MIC in assay [1] (setting [3]) and in assay [2] (setting [4]) was 120 µg/mL throughout.

With `CCCCCCCCOc1ccc(CN(CC)CC)cc1OC` [Compound of formula (45)], the MIC in assay [1] (setting [3]) and in assay [2] (setting [4]) was 120 µg/mL throughout.

For the molecule `CCCCCCCCOc1ccc(CN2CCN(C(C)=O)CC2)cc1OC` [Compound of formula (46)], the MIC in assay [1] (setting [3]) is 120 µg/mL; in assay [2] (setting [4]), over 120 µg/mL.

Consider `CCCCCCCCOc1ccc(CN(C)Cc2ccccc2)cc1OC` [Compound of formula (47)], for which the MIC in assay [1] (setting [3]) and in assay [2] (setting [4]) was over 120 µg/mL throughout.

`CCCCCCCCOc1ccc(CN(C)CCCCCC)cc1OC` [Compound of formula (48)]: the MIC in assay [1] (setting [3]) was over 120 µg/mL; in assay [2] (setting [4]) it was 120 µg/mL.

On to `CCCCCCCCOc1ccc(CN2CCN(CC)CC2)cc1OC` [Compound of formula (49)], for which the MIC in assay [1] (setting [3]) came to 120 µg/mL; in assay [2] (setting [4]), 60 µg/mL.

For `CCCCCCCCOc1ccc(CN2CCCC2)cc1OC` [Compound of formula (50)], the MIC in assay [1] (setting [3]) and in assay [2] (setting [4]) was 60 µg/mL in each case.

Consider `CCCCCCCCCCCCN(C)Cc1ccc(OCCCCCCCC)c(OC)c1` [Compound of formula (51)], for which the MIC in assay [1] (setting [3]) and in assay [2] (setting [4]) was over 120 µg/mL in each case.

Turning to `CCCCCCCCOc1ccc(CN(C)C)cc1OC` [Compound of formula (52)], the MIC in assay [1] (setting [3]) and in assay [2] (setting [4]) was 120 µg/mL each time.

As to `CCCCCCCCOc1ccc(CN2CCNCC2)cc1OC` [Compound of formula (53)], the MIC in assay [1] and in assay [2] was over 120 µg/mL each time.

With `CCCCCCCCOc1ccc(CN2CCCCC2)cc1OC` [Compound of formula (54)], the results for the MIC in assay [1] (setting [3]) and in assay [2] (setting [4]) were 30 µg/mL and 60 µg/mL, respectively.

`CCCOc1ccc(CN(C)CCc2ccccn2)cc1OC` [Compound of formula (55)]: the MIC in assay [1] (setting [3]) and in assay [2] (setting [4]) was over 120 µg/mL each time.

Regarding `CCCOc1ccc(CN2CCOCC2)cc1OC` [Compound of formula (56)], the figures for the MIC in assay [1] (setting [3]) and in assay [2] (setting [4]) were over 120 µg/mL and 120 µg/mL, respectively.

As for `CCCCN(C)Cc1ccc(OCCC)c(OC)c1` [Compound of formula (57)], the MIC was 120 µg/mL in assay [1] (setting [3]) and over 120 µg/mL in assay [2] (setting [4]).

With `CCCOc1ccc(CN2CCCCCC2)cc1OC` [Compound of formula (58)], the MIC in assay [1] (setting [3]) was over 120 µg/mL; in assay [2] (setting [4]), 120 µg/mL.

On to `CCCOc1ccc(CN(C(C)C)C(C)C)cc1OC` [Compound of formula (59)], for which the MIC in assay [1] (setting [3]) and in assay [2] (setting [4]) was over 120 µg/mL each time.

With `CCCOc1ccc(CN2CCN(C)CC2)cc1OC` [Compound of formula (60)], the MIC in assay [1] and in assay [2] was over 120 µg/mL in each case.

Turning to `CCCOc1ccc(CN(CC)CC)cc1OC` [Compound of formula (61)], the MIC in assay [1] (setting [3]) and in assay [2] (setting [4]) was over 120 µg/mL each time.

As to `CCCOc1ccc(CN2CCN(C(C)=O)CC2)cc1OC` [Compound of formula (62)], the MIC in assay [1] (setting [3]) and in assay [2] (setting [4]) was over 120 µg/mL throughout.

`CCCOc1ccc(CN(C)Cc2ccccc2)cc1OC` [Compound of formula (63)]: the MIC in assay [1] (setting [3]) and in assay [2] (setting [4]) was over 120 µg/mL each time.

`CCCCCCN(C)Cc1ccc(OCCC)c(OC)c1` [Compound of formula (64)]: the MIC in assay [1] (setting [3]) and in assay [2] (setting [4]) was over 120 µg/mL throughout.

For `CCCOc1ccc(CN2CCN(CC)CC2)cc1OC` [Compound of formula (65)], the MIC in assay [1] and in assay [2] was over 120 µg/mL each time.

As to `CCCOc1ccc(CN2CCCC2)cc1OC` [Compound of formula (66)], the MIC in assay [1] (setting [3]) and in assay [2] (setting [4]) was over 120 µg/mL each time.

Consider `CCCCCCCCCCCCN(C)Cc1ccc(OCCC)c(OC)c1` [Compound of formula (67)], for which the MIC was over 120 µg/mL in assay [1] (setting [3]) and 60 µg/mL in assay [2] (setting [4]).

Turning to `CCCOc1ccc(CN(C)C)cc1OC` [Compound of formula (68)], the MIC in assay [1] (setting [3]) and in assay [2] (setting [4]) was over 120 µg/mL each time.

As to `CCCOc1ccc(CN2CCNCC2)cc1OC` [Compound of formula (69)], the MIC in assay [1] and in assay [2] was over 120 µg/mL each time.

With `CCCOc1ccc(CN2CCCCC2)cc1OC` [Compound of formula (70)], the MIC in assay [1] (setting [3]) and in assay [2] (setting [4]) was over 120 µg/mL each time.

For `CCCCCCCCCCCCOc1ccc(CN(C)CCc2ccccn2)cc1` [Compound of formula (71)], the MIC in assay [1] (setting [3]) and in assay [2] (setting [4]) was over 120 µg/mL each time.

As for `CCCCCCCCCCCCOc1ccc(CN2CCOCC2)cc1` [Compound of formula (72)], the MIC in assay [1] (setting [3]) and in assay [2] (setting [4]) was over 120 µg/mL each time.
